The target in one data set is T1, PfSIP2 D1 (Plasmodium falciparum, UniProt C6KSN9).
T1 construct: gene PF3D7_0604100
T1 sequence (C6KSN9 1729-1788 limits assumed): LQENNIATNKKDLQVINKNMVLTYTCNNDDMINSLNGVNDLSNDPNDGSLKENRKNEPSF
Nature of the data set: competitive EMSA, inhibition of DNA binding. The conditions noted are these: 300 uM compound; cognate biotinylated dsDNA probe; 10 mM Tris pH 7.5, 50 mM KCl, 6 mM MgCl2.

Another data set concerns the target T2, AP2-HS D1 (Plasmodium falciparum, UniProt C0H5G5).
T2 construct: gene PF3D7_1342900
T2 sequence (C0H5G5 2363-2413 limits assumed): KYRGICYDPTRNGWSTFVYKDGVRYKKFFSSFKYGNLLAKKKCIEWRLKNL
Nature of the data set: competitive EMSA, inhibition of DNA binding. The conditions noted are these: 300 uM compound; cognate biotinylated dsDNA probe; 10 mM Tris pH 7.5, 50 mM KCl, 6 mM MgCl2.

In another data set the target is T3, AP2-I D3 (Plasmodium falciparum, UniProt Q8IJW6).
T3 construct: gene PF3D7_1007700
Nature of the data set: competitive EMSA, inhibition of DNA binding. The conditions noted are these: 300 uM compound; cognate biotinylated dsDNA probe; 10 mM Tris pH 7.5, 50 mM KCl, 6 mM MgCl2.

For the next data set, the target named is T4, PbAP2-Sp (Plasmodium berghei, UniProt A0A509ASL1).
T4 construct: gene PBANKA_1329800
T4 sequence (A0A509ASL1 175-230 limits assumed): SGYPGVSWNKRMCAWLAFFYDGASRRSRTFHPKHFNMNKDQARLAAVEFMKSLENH
The experiment in a line: competitive EMSA, inhibition of DNA binding. The conditions noted are these: 300 uM compound; cognate biotinylated dsDNA probe; 10 mM Tris pH 7.5, 50 mM KCl, 6 mM MgCl2.

Data set [1] concerns the target T5, AP2-EXP AP2 domain (Plasmodium falciparum, UniProt Q8IKH2).
T5 construct: gene PF3D7_1466400
T5 sequence (Q8IKH2 63-123): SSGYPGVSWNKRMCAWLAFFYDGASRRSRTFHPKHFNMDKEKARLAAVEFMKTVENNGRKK
Nature of the data set: competitive EMSA, inhibition of DNA binding. The conditions noted are these: 300 uM compound, biotinylated cognate dsDNA probe, 10 mM Tris pH 7.5, 50 mM KCl, 6 mM MgCl2.

Data set [2] concerns the target AP2-EXP AP2 domain (Plasmodium falciparum, UniProt Q8IKH2 64-118). The experiment in a line: EMSA; 300 uM Compound D; EMSA: 10 mM Tris pH 7.5, 50 mM KCl, 1 mM DTT, 6 mM MgCl2, 60 ng/uL poly dIdC, 65 ng BSA; 125 ng AP2-EXP or PbAP2-Sp, 40-150 fmol probe; 15 min protein + compound, then 5 min with DNA; temperature not stated. The conditions noted are these: protein: recombinant; (expressed as in cited work); label: 5' biotin on forward strand; blunt.

For another data set, the target named is AtERF1 AP2/ERF domain (Arabidopsis thaliana, UniProt O80337 147-205). The experiment in a line: EMSA; 300 uM Compound A; EMSA: 10 mM Tris pH 7.5, 50 mM KCl, 1 mM DTT, 6 mM MgCl2, 60 ng/uL poly dIdC, 65 ng BSA; 125 ng AP2-EXP or PbAP2-Sp, 40-150 fmol probe; 15 min protein + compound, then 5 min with DNA; temperature not stated. Conditions: protein: recombinant; (pGex4t-1); label: 5' biotin on forward strand; blunt.
Sequence of AtERF1 AP2/ERF domain (O80337 147-205): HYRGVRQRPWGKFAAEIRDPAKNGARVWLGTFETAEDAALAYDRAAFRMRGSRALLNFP

T3 sequence (Q8IJW6 entry or part of it): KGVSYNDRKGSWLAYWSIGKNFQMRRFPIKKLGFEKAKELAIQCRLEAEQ

Consider `CCc1ccc(-c2nc3cc(NC(=O)c4ccc([N+](=O)[O-])o4)ccc3o2)cc1` [B, Compound B], for which the “competitive EMSA, inhibition of DNA binding” value (shortened to “competitive EMSA, inhibition”) at PfSIP2 D1 was “Compounds B, C and I prevent DNA binding by PfSIP2 D1 (S5C Fig)”; at AP2-HS D1 it was “Compounds B and I prevent DNA binding by AP2-HS D1 (S5B Fig)”; on AP2-I D3, “Compounds A, B, C, and I can prevent DNA binding by AP2-I D3”; on PbAP2-Sp it was “Compounds B and C block PbAP2-Sp DNA binding in vitro”.
For the molecule `Cc1ccc(-c2nc3cc(NC(=O)c4ccc([N+](=O)[O-])o4)ccc3o2)cc1Cl` [B-1, Compound B-1], the “competitive EMSA, inhibition” value at AP2-EXP AP2 domain [1] was “Compounds B-1 and B-4 prevent DNA binding by AP2-EXP (Fig 2A)”; on AP2-I D3, “prevent DNA binding by AP2-EXP (Fig 2A) and AP2-I D3 (S7A Fig)”.
In the case of `Cc1cccc(-c2nc3cc(NC(=O)c4ccc([N+](=O)[O-])o4)ccc3o2)c1` [B-4, Compound B-4], the “competitive EMSA, inhibition” value at AP2-EXP AP2 domain [1] (also titrated at 25, 50 and 150 uM) is “Compounds B-1 and B-4 prevent DNA binding by AP2-EXP (Fig 2A)”; at AP2-I D3, “prevent DNA binding by AP2-EXP (Fig 2A) and AP2-I D3 (S7A Fig)”.

B1: AP2-EXP gel shift probe (dsDNA)
DNA 1: ACTACACACCTAACTATGCATGCATCAATATAGTGGATTA
DNA 2: TAATCCACTATATTGATGCATGCATAGTTAGGTGTGTAGT
B1: the binding result with AP2-EXP AP2 domain [2] is “binds”.

B2: AtERF1 gel shift probe (dsDNA)
DNA 1: TTTAACTTTAATTATGAATATGAGGCGGCGGGTTCGTGATCAAC
DNA 2: GTTGATCACGAACCCGCCGCCTCATATTCATAATTAAAGTTAAA
As for B2, the binding result with AtERF1 AP2/ERF domain is “binds”.

The record behind these values is publication PMC9591056, “Inhibitors of ApiAP2 protein DNA binding exhibit multistage activity against Plasmodium parasites” (PLOS Pathogens, 2022).
